Laboratory results taken from patent EP0465913B1, “Diaminotrifluoromethylpyrimidine derivatives, process for their production and phospholipase A2 inhibitor containing them” (ISHIHARA SANGYO KAISHA, LTD., priority 1990, dated 1992).
Where a name gives a salt, the structure may show the parent alone.

Tests used:
[1] = tested on: experimental acute pancreatitis model; test: Effects against acute pancreatitis (Test Example 7, closed duodenal loop method, gross pathological examination); format: in vivo, Crj-CD male rats; design: key: -: No significant lesions; ±: Minimal; +: Light; ++: Moderate; +++: Marked; conditions: 40 mg per kg continuous intravenous injection, examination 3 hours after ventrotomy, individual rats
Procedure: (§1) Using Crj-CD male rats (for Compound No. 19, rats having a body weight of from 371 to 484 g were used, and for Compound No. 10, rats having a body weight of from 444 to 574 g were used), each test group consisted of 3 rats. An experimental acute pancreatitis model was prepared by a closed duodenal loop method under anesthesia with halothane (manufactured by Hoechst Japan) and nitrous oxide (manufactured by Sumitomo Seika K.K.) applied by means of a general inhalation anesthesia machine (Model EM-2 and halothane evaporator F-Model). Then, Compound No. 19 or Compound No. 10 was continuously intravenously injected into the tail vein in an amount of 50 mg per kg or 40 mg per kg, respectively, at a rate of 0.05 ml per minute by means of a pump (Technicon AA II Proportioning Pump III, manufactured by Technicon Instruments Corporation). No injection was made to a control group. Gross pathological examination was conducted upon expiration of 6 hours after the ventrotomy in the case of the test group to which Compound No. 19 was administered, or upon expiration of 3 hours after the ventrotomy in the case of the test group to which Compound No. 10 was administered. As a result, as shown in the following Table 12, the groups to which the compounds of the present invention were administered, show distinct usefulness for treating acute pancreatitis.

[2] = tested on: experimental acute pancreatitis model; test: as above; format: in vivo, Crj-CD male rats; design: key: -: No significant lesions; ± ∼ +++: Focal-diffuse; ± ∼ +++: Focal-diffuse; ± ∼ +++: Focal-diffuse; ± ∼ +++: Focal-diffuse; conditions: 40 mg per kg continuous intravenous injection, examination 3 hours after ventrotomy, individual rats
Procedure: as §1

ddy male mice = test: Acute toxicity, intravenous injection (LD50); format: in vivo; conditions: sodium salt, mortality over one week, 10080 min
Procedure: Administration route: Intravenous injection
Using ddy male mice (body weight: 25 - 30 g), each test group consisted of 5 mice. A test compound was dissolved in the form of a sodium salt in a physiological saline or in a 5% glucose aqueous solution, and intravenously injected in an amount of 0.1 ml/10 g body weight. After the injection, the mortality rate was obtained over one week, and the median lethal dose LD50 (mg/kg) was determined.

| SMILES | Pancreatic hemorrhage Petechia Distribution [1] | Pancreatic hemorrhage Petechia Distribution [2] | LD50 (ddy male mice) [mg/kg] |
| --- | --- | --- | --- |
| CS(=O)(=O)Nc1ncc(C(F)(F)F)cc1NC(=O)c1ccc(F)cc1 [Compound No. 10, N-(2-methylsulfonylamino-5-trifluoromethyl-3-pyridyl)-4-fluorobenzamide] | - | ± and + |  |
| CCS(=O)(=O)Nc1ncc(C(F)(F)F)cc1NC(=O)C1CCCCC1 [Compound No. 251, sodium salt of N-(2-ethylsulfonylamino-5-trifluoromethyl-3-pyridyl)cyclohexanecarboxamide] |  |  | 65 |
